Consider 3 compounds from patent publication EP0326526A1, “Aminoketones of substituted dibenzo- and pyridobenzo-azepinones and pharmaceutical compositions” (ISTITUTO DE ANGELI S.p.A., priority 1988, dated 1989).

The Kd is the constant that tells how readily two partners part at equilibrium.

The target of data set [1] is T1, M₂ muscarinic receptors (heart) (Rattus norvegicus, UniProt P10980).
T1 construct: displacement of ³H-NMS from total heart homogenate; from tissue; rat inferred
T1 sequence (P10980 1-466): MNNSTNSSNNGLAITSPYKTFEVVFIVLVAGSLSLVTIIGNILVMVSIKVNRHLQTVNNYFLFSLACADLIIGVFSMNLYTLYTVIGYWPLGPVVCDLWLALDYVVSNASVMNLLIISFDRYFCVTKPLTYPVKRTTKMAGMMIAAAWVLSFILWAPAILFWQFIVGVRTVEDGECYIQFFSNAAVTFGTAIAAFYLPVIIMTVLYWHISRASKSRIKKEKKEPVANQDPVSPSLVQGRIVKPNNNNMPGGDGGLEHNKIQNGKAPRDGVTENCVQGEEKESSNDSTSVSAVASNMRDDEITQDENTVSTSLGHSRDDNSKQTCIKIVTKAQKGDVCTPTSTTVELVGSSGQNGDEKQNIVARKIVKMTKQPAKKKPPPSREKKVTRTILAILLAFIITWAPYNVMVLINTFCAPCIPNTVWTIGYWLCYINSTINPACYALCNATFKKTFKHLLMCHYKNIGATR
Nature of the data set: Muscarinic M₂ receptor binding: displacement of ³H-NMS from total heart homogenate. The settings on record: read-out: IN VITRO RECEPTOR BINDING TEST KD M₂ (heart).

Data set [2] has as its target T2, M₁ muscarinic receptors (cerebral cortex) (Rattus norvegicus, UniProt P08482).
T2 construct: displacement of ³H-pirenzepine from cerebral cortex homogenate; from tissue; host or cells: rat cerebral cortex homogenate
T2 sequence (P08482 1-460): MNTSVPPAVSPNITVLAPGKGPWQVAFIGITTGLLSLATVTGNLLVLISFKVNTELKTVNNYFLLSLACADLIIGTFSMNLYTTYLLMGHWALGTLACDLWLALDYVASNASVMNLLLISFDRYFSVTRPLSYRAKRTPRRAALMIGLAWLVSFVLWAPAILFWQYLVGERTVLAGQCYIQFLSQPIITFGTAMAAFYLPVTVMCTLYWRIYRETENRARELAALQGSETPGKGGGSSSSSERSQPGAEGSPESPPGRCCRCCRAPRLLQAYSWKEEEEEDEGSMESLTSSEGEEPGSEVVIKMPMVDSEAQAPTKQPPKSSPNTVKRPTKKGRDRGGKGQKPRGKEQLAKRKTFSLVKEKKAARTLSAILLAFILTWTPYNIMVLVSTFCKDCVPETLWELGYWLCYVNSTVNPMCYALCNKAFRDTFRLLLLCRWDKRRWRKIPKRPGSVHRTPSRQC
Nature of the data set: Muscarinic M₁ receptor binding: displacement of ³H-pirenzepine from cerebral cortex homogenate. Also on record: species or system male CD-COOBBS rats. The settings on record: competition against 0.5 nM ³H-pirenzepine, 45 min at 30°C, read-out: IN VITRO RECEPTOR BINDING TEST KD M₁ (cortex). How it is done: (§1) Antimuscarinic activity and selectivity were examined in vitro by receptor binding studies in two tissues endowed with M₁ and M₂ muscarinic receptors (cerebral cortex, heart) and in vivo by studying the acid secretion and pepsin inhibition (M₁ response) in comparison with the cardiac and mydriatic effects (M₂ response) in conscious dogs equipped with cronic gastric fistula.
Muscarinic M₁ activity was determined by studying the displacement of ³H-pirenzepine from cerebral cortex homogenate according to the procedure reported below: The cerebral cortex donors were male CD-COOBBS rats, 220-250 g body weight. The homogenization process was carried out in a Potter-Evelhjem apparatus in the presence of Na⁺/Mg⁺⁺ HEPES buffer; pH 7.4 (100 mM NaCl, 10 mM MgCl₂, 20 mM HEPES); by filtering the suspension through two layers of cheesecloth. Binding curves for the under study compounds were derived indirectly from competition experiments against 0.5 nM ³H-pirenzepine labelling the muscarinic receptors of the cerebral cortex. 1 ml of the homogenate was incubated for 45 min at 30°C in the presence of a marker ligand and dif ferent concentrations of the cold ligand, conditions under which equilibrium was reached as determined by appropriate association experiments. The incubation was termination by centrifugation (12,000 rpm for 3 min) at room temperature using an Eppendorf microcentrifuge. The resultant pellet was washed twice with 1.5 ml saline to remove the free radioactivity and the final pellet was allowed to drain. The tips of the tubes containing the pellet were cut off and 200µl of tissue subilizer (Lumasolve, Lumac) were added and left to stand overnight. Radioactivity was then counted after addition of 4 ml of liquid scintillation mixture (Dimilume/Toluene 1:10 v:v, Packard).
Assays were carried out in triplicate or quadruplicate and the non-specific binding was defined as the radioactivity bound or entrapped in the pellet when the incubation medium contained 1 µM atropine sulphate. Non-specific binding avaraged less then 30%. […]

The test system of data set [3] is conscious dogs equipped with cronic gastric fistula. As to the kind of experiment: Conscious gastric fistula dog in vivo: 2-DG-elicited gastric secretion, heart rate and pupil diameter. Also on record: species or system male Beagle dogs. The settings on record: cumulative i.v. dosing; for Heart rate ED₅₀ (beats/min): dose increasing heart rate by 50 beats per min; for ED₅₀ (agonist 2-DG*) Acid output: dose inhibiting 50% acid output; for ED₅₀ (agonist 2-DG*) Acid output / ED₅₀ (agonist 2-DG*) Pepsin output: secretion elicited by 2-deoxy-D-glucose 100 mg/kg i.v.; for ED₅₀ (agonist 2-DG*) Pepsin output: dose inhibiting 50% pepsin output; for Dose doubling pupil diameter: dose which at least doubled the initial pupil diameter. How it is done: as §1
Studies were performed in 5 male Beagle dogs (15-22 Kg) with well established gastric fistula. Gastric secretion was elicited by 2-deoxy-D-glucose (2-DG) (100 mg/kg, infused intravenously in 10 min), and collected by gravity drainage at 15 min intervals. […] Each sample was measured for volume (to the nearest 0.1 ml) and acidity (titration of 1 ml sample to pH 7 with NaOH 0.1 N by means of an automatic titrator ITT Radiometer PHM 62); the pepsin content in each 15 min sample was determined on 0.1 ml of gastric juice (diluted 1:20 wich HCl 0.1 N), using the hemoglobin digestion method described by Anson (J.Gen. Phys. 22 ([…]) 79) and expressed in mU Anson.
The compounds were injected intravenously in a cumulative fashion, each dose being administered at 15 min intervals, starting after the peak response was reached. At each dose level, heart rate was measured by a cardiotachometer and pupil diameter scored under constant light. Doses inhibiting 50% (ED₅₀ and their 95% confidence limits) acid and pepsin output and maximal inhibition (I max), were obtained by fractional linear transformation of the data: D/I = aD+b, were D = dose of antagonist; I = % inhibition of acid or pepsin output; I max = 1/a; ED₅₀ = b/a. (Hirschowitz B.I. Am. J. Physiol. 216: 487-489 1969) Doses increasing heart rate by 50 beats per min (ED₅₀ and their 95% confidence limits) were evaluated by linear regression analysis of the data relating dose to effect.
Doses of compound which at least doubled the initial pupil diameter were also determined.

Turning to `CN1CCC(C(=O)C2c3ccccc3NC(=O)c3ccccc32)CC1` (stereo not drawn) [Compound 1, 6,11-dihydro-11-[(1-methyl-4-piperidinyl)-carbonyl]-5H-dibenz[b,e]-azepin-6-one], the Kd in data set [1] was 212 nM. The Kd in data set [2] stood at 2.1 nM. For the same compound, in data set [3], the “Heart rate ED₅₀ (beats/min)” value stood at 204 µg/kg i.v, the “ED₅₀ (agonist 2-DG*) Acid output” value turned out to be 6.2 µg/kg i.v, the “ED₅₀ (agonist 2-DG*) Pepsin output” value worked out at 8.0 µg/kg i.v and the “Dose doubling pupil diameter” value was 512 µg/kg i.v.
`CN1CCC(C(=O)C2c3ccccc3C(=O)Nc3cccc(F)c32)CC1` (stereo not drawn) [Compound 4, 1-fluoro-6,11-dihydro-11-[(1-methyl-4-piperidinyl)-carbonyl]-5H-dibenz[b,e]-azepin-6-one]: the dissociation constant (Kd) in data set [1] is 210 nM. In addition, the Kd in data set [2] was 2.2 nM. In data set [3], the “Heart rate ED₅₀ (beats/min)” value is on record as 191 µg/kg i.v, the “ED₅₀ (agonist 2-DG*) Acid output” value came out at 6.1 µg/kg i.v, the “ED₅₀ (agonist 2-DG*) Pepsin output” value was determined as 5.3 µg/kg i.v and the “Dose doubling pupil diameter” value is reported as 512 µg/kg i.v.
For the compound `CN1CCC(C(=O)C2c3ccccc3C(=O)Nc3ccc(Cl)nc32)CC1` (stereo not drawn) [Compound 12, 2-chloro-6,11-dihydro-11-[(1-methyl-4-piperidinyl)-carbonyl]-5H-pyrido[2,3b]-benzazepin-6-one], the Kd in data set [1] was determined as 279 nM. The Kd in data set [2] amounted to 3.15 nM. Further, in data set [3], the “Heart rate ED₅₀ (beats/min)” value is given as 78 µg/kg i.v, the “ED₅₀ (agonist 2-DG*) Acid output” value amounted to 7.2 µg/kg i.v, the “ED₅₀ (agonist 2-DG*) Pepsin output” value turned out to be 6.3 µg/kg i.v and the “Dose doubling pupil diameter” value was 320 µg/kg i.v.
